The target of the test is T1, human PAR4 (Homo sapiens, UniProt Q96RI0).
T1 construct: expressed in transfected cells; host or cells: HEK293 PAR4 Clone 1.2A (BMS Arctic ID 383940)
T1 sequence (Q96RI0 18-385): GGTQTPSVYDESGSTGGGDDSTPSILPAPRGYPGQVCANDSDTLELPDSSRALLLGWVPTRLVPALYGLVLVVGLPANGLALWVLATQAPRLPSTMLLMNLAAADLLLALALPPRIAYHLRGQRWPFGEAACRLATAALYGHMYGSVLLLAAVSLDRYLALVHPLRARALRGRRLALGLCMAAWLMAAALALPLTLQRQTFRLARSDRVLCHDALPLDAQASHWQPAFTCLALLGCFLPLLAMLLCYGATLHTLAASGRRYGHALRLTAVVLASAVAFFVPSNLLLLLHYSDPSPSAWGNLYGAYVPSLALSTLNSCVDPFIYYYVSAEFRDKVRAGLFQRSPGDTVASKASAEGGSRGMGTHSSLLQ
Nature of the test: PAR4 FLIPR assay: antagonism of agonist-peptide-induced calcium mobilization in PAR4-expressing HEK293 cells. It is filed as cell-based. Particulars: H-Ala-Phe(4-F)-[…]NH2-induced intracellular calcium mobilization, 11-point curves.

pIC50: −log10 of the molar value.

On to `COc1cnc2c(-c3nc4cc(F)c(O[C@@H](C)[C@@H](C)OC(=O)Nc5cnc(C(=O)NCC(C)(C)O)nc5)nc4s3)cc(C)cc2n1` [Example 751, (2R,3S)-3-((6-fluoro-2-(2-methoxy-7-methylquinoxalin-5-yl)thiazolo[5,4-b]pyridin-5-yl)oxy)butan-2-yl (2-((2-hydroxy-2-methylpropyl)carbamoyl)pyrimidin-5-yl)carbamate], for which the negative logarithm of the IC50 (pIC50) is 8.33.

Consider `COc1cnc2c(-c3nc4cc(F)c(O[C@@H](C)[C@@H](C)OC(=O)Nc5cnc(C(=O)NC[C@@H](C)O)nc5)nc4s3)cc(C)cc2n1` [Example 752, (2R,3S)-3-((6-fluoro-2-(2-methoxy-7-methylquinoxalin-5-yl)thiazolo[5,4-b]pyridin-5-yl)oxy)butan-2-yl (2-(((R)-2-hydroxypropyl)carbamoyl)pyrimidin-5-yl)carbamate], for which the pIC50 was 7.85.

In the case of `COc1cnc2c(-c3nc4cc(F)c(O[C@@H](C)[C@@H](C)OC(=O)Nc5cnc(C(=O)NC[C@H](C)O)nc5)nc4s3)cc(C)cc2n1` [Example 753, (2R,3S)-3-((6-fluoro-2-(2-methoxy-7-methylquinoxalin-5-yl)thiazolo[5,4-b]pyridin-5-yl)oxy)butan-2-yl (2-(((S)-2-hydroxypropyl)carbamoyl)pyrimidin-5-yl)carbamate], the negative-log IC50 (pIC50) is 7.92.

As to `COc1cnc2c(-c3nc4cc(F)c(O[C@@H](C)[C@@H](C)OC(=O)Nc5ccc(C(N)=O)nc5)nc4s3)cc(C)cc2n1` [Example 754, (2R,3S)-3-((6-fluoro-2-(2-methoxy-7-methylquinoxalin-5-yl)thiazolo[5,4-b]pyridin-5-yl)oxy)butan-2-yl (6-carbamoylpyridin-3-yl)carbamate], the pIC50 is 9.52.

For `COc1cnc2c(-c3nc4cc(F)c(O[C@@H](C)[C@@H](C)OC(=O)Nc5cnc(C(N)=O)nc5)nc4s3)cc(C)cc2n1` [Example 755, (2R,3S)-3-((6-fluoro-2-(2-methoxy-7-methylquinoxalin-5-yl)thiazolo[5,4-b]pyridin-5-yl)oxy)butan-2-yl (2-carbamoylpyrimidin-5-yl)carbamate], the negative-log IC50 (pIC50) was 9.52.

Regarding `COc1cnc2c(-c3nc4c(C)cc(OCCNS(=O)(=O)c5ccc(C)cc5)nc4s3)cc(C)cc2n1` [Example 762, N-(2-((2-(2-methoxy-7-methylquinoxalin-5-yl)-7-methylthiazolo[5,4-b]pyridin-5-yl)oxy)ethyl)-4-methylbenzenesulfonamide], the negative logarithm of the IC50 (pIC50) was 8.85.

For the molecule `COCc1cnc2c(-c3nc4c(C)c(F)c(OC)nc4s3)cc(C)cc2n1` [Example 763, 6-fluoro-5-methoxy-2-(2-(methoxymethyl)-7-methylquinoxalin-5-yl)-7-methylthiazolo[5,4-b]pyridine], the negative logarithm of the IC50 (pIC50) was 8.40.

In the case of `COc1cnc2c(-c3nc4cc(F)c(O[C@@H](C)[C@@H](C)OC(=O)Nc5cnc(CO)nc5)nc4s3)cc(C)cc2n1` [Example 764, (2R,3S)-3-((6-fluoro-2-(2-methoxy-7-methylquinoxalin-5-yl)thiazolo[5,4-b]pyridin-5-yl)oxy)butan-2-yl (2-(hydroxymethyl)pyrimidin-5-yl)carbamate], the pIC50 was 8.77.

Consider `COc1cnc2c(-c3nc4cc(F)c(O[C@@H](C)[C@@H](C)OC(=O)Nc5ccc(C(C)(C)O)nc5)nc4s3)cc(C)cc2n1` [Example 765, (2R,3S)-3-((6-fluoro-2-(2-methoxy-7-methylquinoxalin-5-yl)thiazolo[5,4-b]pyridin-5-yl)oxy)butan-2-yl (6-(2-hydroxypropan-2-yl)pyridin-3-yl)carbamate], for which the negative-log IC50 (pIC50) is 9.10.

Regarding `COc1cnc2c(-c3nc4cc(F)c(OC[C@@H](C)OC(=O)Nc5cnc(CO)nc5)nc4s3)cc(C)cc2n1` [Example 768, (R)-1-((6-fluoro-2-(2-methoxy-7-methylquinoxalin-5-yl)thiazolo[5,4-b]pyridin-5-yl)oxy)propan-2-yl (2-(hydroxymethyl)pyrimidin-5-yl)carbamate], the pIC50 is 8.00.

As to `COc1cnc2c(-c3nc4cc(F)c(O[C@@H](C)[C@@H](C)OC(=O)Nc5cnc(C)nc5)nc4s3)cc(Cl)cc2c1` [Example 769, (2R,3S)-3-((2-(6-chloro-3-methoxyquinolin-8-yl)-6-fluorothiazolo[5,4-b]pyridin-5-yl)oxy)butan-2-yl (2-methylpyrimidin-5-yl)carbamate], the pIC50 was 8.49.

As for `COc1cnc2c(-c3nc4cc(F)c(OC[C@@H](C)OC(=O)Nc5cnc(C)nc5)nc4s3)cc(Cl)cc2c1` [Example 770, (R)-1-((2-(6-chloro-3-methoxyquinolin-8-yl)-6-fluorothiazolo[5,4-b]pyridin-5-yl)oxy)propan-2-yl (2-methylpyrimidin-5-yl)carbamate], the pIC50 was 8.72.

`COc1cnc2c(-c3nc4cc(F)c(O[C@@H](C)[C@@H](C)OC(=O)Nc5cnc(C)nc5)cc4s3)cc(F)cc2c1` [Example 772, (2R,3S)-3-((5-fluoro-2-(6-fluoro-3-methoxyquinolin-8-yl)benzo[d]thiazol-6-yl)oxy)butan-2-yl (2-methylpyrimidin-5-yl)carbamate]: the pIC50 is 8.82.

For the molecule `COc1cnc2c(-c3nc4cc(F)c(O[C@@H](C)[C@@H](C)OC(=O)Nc5cnc(C)nc5)cc4s3)cc(CO)cc2c1` [Example 773], the pIC50 is 7.96.

Turning to `COc1cnc2c(-c3nc4cc(F)c(O[C@@H](C)[C@@H](C)OC(=O)Nc5cnc(OCCO)nc5)nc4s3)cc(Cl)cc2c1` [Example 774, (2R,3S)-3-((2-(6-chloro-3-methoxyquinolin-8-yl)-6-fluorothiazolo[5,4-b]pyridin-5-yl)oxy) butan-2-yl (2-(2-hydroxyethoxy)pyrimidin-5-yl)carbamate], the pIC50 was 8.92.

Regarding `COc1cnc2c(-c3nc4cc(F)c(O[C@@H](C)[C@@H](C)OC(=O)Nc5cnc(OCCO)nc5)nc4s3)cc(C)cc2c1` [Example 775, (2R,3S)-3-((6-fluoro-2-(3-methoxy-6-methylquinolin-8-yl)thiazolo[5,4-b]pyridin-5-yl)oxy)butan-2-yl (2-(2-hydroxyethoxy)pyrimidin-5-yl)carbamate], the pIC50 is 9.10.

Consider `COc1cnc2c(-c3nc4cc(F)c(O[C@@H](C)[C@@H](C)OC(=O)Nc5cncc(F)c5)nc4s3)cc(Cl)cc2c1` [Example 776, (2R,3S)-3-((2-(6-chloro-3-methoxyquinolin-8-yl)-6-fluorothiazolo[5,4-b]pyridin-5-yl)oxy)butan-2-yl (5-fluoropyridin-3-yl)carbamate], for which the pIC50 is 8.60.

In the case of `COc1cnc2c(-c3nc4cc(F)c(O[C@@H](C)[C@@H](C)OC(=O)Nc5ccc6[nH]c(=O)oc6c5)nc4s3)cc(Cl)cc2c1` [Example 777, (2R,3S)-3-((2-(6-chloro-3-methoxyquinolin-8-yl)-6-fluorothiazolo[5,4-b]pyridin-5-yl)oxy) butan-2-yl (2-oxo-2,3-dihydrobenzo[d]oxazol-6-yl)carbamate], the negative-log IC50 (pIC50) was 8.07.

On to `COc1cnc2c(-c3nc4cc(F)c(O[C@@H](C)[C@@H](C)OC(=O)Nc5ccnc(OCCC(C)(C)O)c5)nc4s3)cc(Cl)cc2c1` [Example 778, (2R,3S)-3-((2-(6-chloro-3-methoxyquinolin-8-yl)-6-fluorothiazolo[5,4-b]pyridin-5-yl)oxy) butan-2-yl (2-(3-hydroxy-3-methylbutoxy)pyridin-4-yl)carbamate], for which the pIC50 was 8.47.

Regarding `COc1cnc2c(-c3nc4cc(F)c(O[C@@H](C)[C@@H](C)OC(=O)Nc5ccc(OCCO)nc5)nc4s3)cc(Cl)cc2c1` [Example 779, (2R,3S)-3-((2-(6-chloro-3-methoxyquinolin-8-yl)-6-fluorothiazolo[5,4-b]pyridin-5-yl)oxy) butan-2-yl (6-(2-hydroxyethoxy)pyridin-3-yl)carbamate], the negative logarithm of the IC50 (pIC50) was 8.48.

Turning to `COc1cnc2c(-c3nc4cc(F)c(O[C@@H](C)[C@@H](C)OC(=O)Nc5ccnc(OCCO)c5)nc4s3)cc(Cl)cc2c1` [Example 780, (2R,3S)-3-((2-(6-chloro-3-methoxyquinolin-8-yl)-6-fluorothiazolo[5,4-b]pyridin-5-yl)oxy) butan-2-yl (2-(2-hydroxyethoxy)pyridin-4-yl)carbamate], the pIC50 is 8.30.

For `COc1cnc2c(-c3nc4cc(F)c(O[C@@H](C)[C@@H](C)OC(=O)Nc5ccc(CCO)nc5)nc4s3)cc(Cl)cc2c1` [Example 781, (2R,3S)-3-((2-(6-chloro-3-methoxyquinolin-8-yl)-6-fluorothiazolo[5,4-b]pyridin-5-yl)oxy) butan-2-yl (6-(2-hydroxyethyl)pyridin-3-yl)carbamate], the pIC50 was 8.22.

With `COc1cnc2c(-c3nc4cc(F)c(O[C@@H](C)[C@@H](C)OC(=O)Nc5cncc(F)c5)cc4s3)cc(Cl)cc2c1` [Example 782, (2R,3S)-3-((2-(6-chloro-3-methoxyquinolin-8-yl)-5-fluorobenzo[d]thiazol-6-yl)oxy)butan-2-yl (5-fluoropyridin-3-yl)carbamate], the pIC50 was 8.57.

As to `COc1cnc2c(-c3nc4cc(F)c(O[C@@H](C)[C@@H](C)OC(=O)Nc5ccc(C(F)(F)F)nc5)cc4s3)cc(Cl)cc2c1` [Example 783, (2R,3S)-3-((2-(6-chloro-3-methoxyquinolin-8-yl)-5-fluorobenzo[d]thiazol-6-yl)oxy)butan-2-yl (6-(trifluoromethyl)pyridin-3-yl)carbamate], the negative logarithm of the IC50 (pIC50) is 8.38.

Regarding `COc1cnc2c(-c3nc4cc(F)c(O[C@@H](C)[C@@H](C)OC(=O)Nc5ccc(OC)nc5)cc4s3)cc(Cl)cc2c1` [Example 784, (2R,3S)-3-((2-(6-chloro-3-methoxyquinolin-8-yl)-5-fluorobenzo[d]thiazol-6-yl)oxy)butan-2-yl (6-methoxypyridin-3-yl)carbamate], the pIC50 is 8.55.

These data come from US12060347B2 (BRISTOL-MYERS SQUIBB COMPANY, priority 2016, dated 2024).
